System: P. falciparum 3D7 growth, pLDH absorbance
Assay: blood-stage malaria parasite growth potency – strain 3D7, dose response (AID 2305)

SMILES	IC50 [nM]
COC(=O)c1cc2cccc(NC[C@@H](C)NC[C@H](O)c3cccc(Cl)c3)c2[nH]1	630
CC(C)(C)c1ccc(NC(=O)c2ccc(CN3CCCN(CC4CCCCC4)CC3)cc2)cc1	540
CC(Cc1ccc(NC(=O)c2ccc(CNCCc3ccccc3)cc2)cc1)NCCc1cccc(Cl)c1 (stereo unspecified)	350
c1cc(CNCC2CCCO2)cc(-c2csc(-c3nc4ccccc4[nH]3)c2)c1 (stereo unspecified)	1040
COc1ccc(-c2nonc2NC(=O)c2ccc(C(C)(C)C)cc2)cc1OC	810
COc1cccc(OC2CCN(C(=O)c3ccc(-c4ccc(N5CCCC5=O)cc4C)cc3)CC2)c1	1010
CCOc1cc2ncnc(Nc3cc(Cl)c(Cl)c(Cl)c3)c2cc1OCC	200
Cc1nc2nc(N)nc(N)c2c(C)c1Cc1ccccc1Br	60
Cc1cc(F)ccc1-c1nc(N(C)CCN(C)C(=O)N(C)c2ccccc2)nc2c1ccc(=O)n2-c1c(F)cccc1F	1240
Cc1cc(N)nc2cc(CNCCc3ccccc3Br)ccc12	130
CCNc1cc(C(=O)N[C@@H](Cc2ccccc2)[C@H](O)CNC2(CC)CC2)cc(N2CCCCS2(=O)=O)c1	1610
N#Cc1c(N2CCN(c3ccc(F)cc3)CC2)nc(N)c2c(N)nc3c(c12)CC(=O)N3C1CC1	840
COc1cc(Nc2ccnc3ccc(C(F)(F)F)cc23)cc(OC)c1OC	700
NC(N)=Nc1nccc(NCc2ccccc2)n1	890
O=C(Nc1ccc(-c2nc3ccccc3[nH]2)cc1)c1cccc(S(=O)(=O)N2CCCC2)c1	740
O=C(Nc1ccc(OC2CCN(Cc3ccccc3)C2)c(Cl)c1)c1ccc(F)cc1 (stereo unspecified)	790
CC(C)NCc1ccc(-c2cccc(-c3nc4ccc(F)cc4[nH]3)c2)cc1	410
N#Cc1c(F)cc(N2CCC(NCC[C@H](N)Cc3ccc(F)c(F)c3)CC2)cc1F	860
NCC1CCCN1Cc1ccc(-c2ccc(-c3nc4ccc(C(F)(F)F)cc4[nH]3)s2)cc1 (stereo unspecified)	790
O=C(NC1CCCC1)c1cc2c(=O)n3ccccc3nc2nc1NCCc1ccccc1	650
CC1N=C(N)N=C(N)N1OCc1ccccc1 (stereo unspecified)	30
O=C(/C=C/c1ccc2ccccc2c1)NC1CCC(CN2CCC(c3c[nH]c4ccccc34)CC2)CC1 (stereo unspecified)	730
CCOC(=O)c1ccc(NC(=O)N(Cc2ccc(-c3cccc(CN4CCNCC4)c3)cc2)C2CCN(Cc3ccccc3)CC2)cc1	750
Cc1nc2ccc3ccc(CNc4ccc5c(c4)CN([C@@H](CCC(=O)O)C(=O)O)C5=O)cc3c2c(=O)[nH]1	160

SMILES	IC50 [nM]
COc1ccccc1CCNc1nc(C)cc(N[C@@H](Cc2ccccc2)C(=O)Nc2ccccc2)n1	1020
COc1ccc(Nc2nccc(N3CCC(NC(=O)Nc4cc(C)ccc4C)C3)n2)cc1 (stereo unspecified)	900
CCCOc1cc(OCCC)cc(-c2cc(=O)c3ccccc3[nH]2)c1	60
CC(=O)C1(c2ccccc2)CCN(CCC2(c3ccc(Cl)c(Cl)c3)CN(C(=O)C3CCCCC3)CCO2)CC1 (stereo unspecified)	310
Cc1cccc2[nH]c(-c3ccc(-c4cccc(CNCCCNS(C)(=O)=O)c4)cc3)nc12	1220
CC(C)(C)OC(=O)N1CCN(c2ccccc2NC(=O)c2cccc(C(F)(F)F)c2Oc2ccc(F)cc2)CC1	860
N#CCCN1CCN(Cc2cccc(-c3ccc(-c4nc5ccccc5[nH]4)cc3)c2)CC1	1020
CN1CCC(NCc2cccc(-c3ccc(S(=O)(=O)NCc4ccccc4)cc3)c2)CC1	690
O=C(/C=C/c1ccc(C(F)(F)F)cc1)NCCCCCN1CCC(c2c[nH]c3ccccc23)CC1	680
CN1CCN(C(C(=O)NCc2cc(Cl)cc(Cl)c2)c2ccccc2-c2ccsc2)CC1 (stereo unspecified)	940
CCCCCCNc1cc(C)nc2ccc(OC)cc12	550
Cc1noc(-c2ccc3c(c2)CCN(CCC2CCC(NC(=O)c4cc5ccccc5[nH]4)CC2)CC3)n1 (stereo unspecified)	690
Cn1nc(-c2cccc(CNC3CCc4ccccc43)c2)c2cnc(NC3CCCC3)nc21 (stereo unspecified)	860
COc1ccc2nc(Nc3nc4ccncc4[nH]3)sc2c1	1130
CC(C)(C)COc1ccc2c(N)n[nH]c2c1	790
O=C(Nc1cccc(-c2cccc(-c3nc4ccc(F)cc4[nH]3)c2)c1)c1ccoc1	330
CCCN(CCC)S(=O)(=O)c1ccc(C(=O)Nc2nc3ccc(-c4cc(=O)[nH]c(Nc5ccccc5Cl)n4)cc3[nH]2)cc1	590
O=C(NCC1CCCCC1)c1cc(=O)c2ccccc2o1	320
CCOc1cc(C(=O)N[C@@H](Cc2ccccc2)[C@H](O)CNCc2cc(OC)cc(OC)c2)cc(N2CCCS2(=O)=O)c1	750
CN(C)CCOc1cc(NC(=O)Nc2ccc(Oc3ccccc3)cc2)ccc1I	890
CCCCCn1c(Sc2ccc(C#N)c([N+](=O)[O-])c2)nnc1-c1ccccc1	860
Cc1ccccc1C1CCN(C2CCC(NC(=O)c3cc(-c4ccccc4)oc3C)CC2)CC1 (stereo unspecified)	1030
NC(=NCCc1ccccc1Cl)c1ccc2ccccc2c1	1630
Cc1[nH]c2ccccc2c1C1CCN(CCCCNC(=O)c2ccc(-c3ccc(C#N)cc3)cc2)CC1	700

SMILES	IC50 [nM]
Cc1ccc(-c2nnc(-c3ccc(C(=O)NC4CCN(Cc5ccc(C#N)cc5)CC4)cc3)o2)cc1Br	850
FC(F)(F)c1ccc2nccc(NN=CC=Cc3ccccc3)c2c1	1020
CN1CCN(CC(=O)Nc2cccc(-c3ccc(-c4nc5ccc(F)cc5[nH]4)cc3)c2)CC1	700
COc1cccc(OC)c1OCCCON1C(N)=NC(N)=NC1(C)C	10
COc1ccccc1CCNc1nc(C)cc(N[C@@H](CC(C)C)C(=O)Nc2ccccc2)n1	1280
CNC(=O)COc1cc(C)c(C2CCN(CCCCNC(=O)c3ccc(-c4ccc(C(F)(F)F)cc4)cc3)CC2)cc1C	870
OC(CNCc1ccco1)Cn1c2ccc(Br)cc2c2cc(Br)ccc21 (stereo unspecified)	1070
CC(=O)N(C)c1cccc(C(=O)Nc2cccc(-c3ccc(-c4nc5ccc(C(F)(F)F)cc5[nH]4)cc3)c2)c1	1000
Cc1ccccc1C1CCN(C2CCC(NC(=O)/C=C/c3c[nH]c4ccccc34)CC2)CC1 (stereo unspecified)	810
COc1ccc(-n2nc(C)c3c2NC(=O)CC3c2ccccc2OCc2ccc(F)cc2)cc1 (stereo unspecified)	850
c1cc(-c2ccc(CNCCCN3CCOCC3)cc2)cc(-c2nc3ccccc3[nH]2)c1	210
COc1ccc2ncc(F)c(CCN3C[C@H](CNCc4ccc5ccccc5c4)[C@H](O)C3)c2n1	500
CC(C)CCNC(=O)C1Cc2c([nH]c3ccc(Br)cc23)C2(CCN(CCc3ccccc3)CC2)N1 (stereo unspecified)	690
COCCNCc1nc(-c2ccc3c(Nc4ccc(F)c(O)c4)ccnc3c2)cs1	690
CCCC(CNCc1cccc(I)c1)CNc1cc(=O)c2ccccc2[nH]1 (stereo unspecified)	470
CC(C)N1CCN(C(CN2CCN(CCCOc3ccc4nonc4c3)CC2)c2ccc(F)cc2)CC1 (stereo unspecified)	800
O=C(Nc1ccc(Br)cc1)Nc1ccc(Cn2ncc(N3CCCNCC3)c(Cl)c2=O)cc1	1140
CN1CCN(c2ccnc3ccc(NC(=O)Nc4ccc(-c5ccncc5)c(C#N)c4)cc23)CC1	160
FC(F)(F)c1ccc2nccc(NN=Cc3ccc(Cl)cc3)c2c1	790
CCCC(C)NC(=O)[C@H](CC1CCCCC1)NC(=O)c1ccc(O)c(-c2ccc(OC)cc2)c1 (stereo partly specified)	1130
CC1(C)N=C(N)N=C(N)N1OCc1cccc(C#N)c1	10
Cc1nc(-c2cccc(Nc3nccc(NCC(O)c4ccc(C(F)(F)F)cc4)n3)c2)cs1 (stereo unspecified)	510
COc1ccc2ncc(Cl)c(CCN3C[C@H](CNCc4ccc5c(n4)NC(=O)CS5)[C@H](O)C3)c2n1	1000

Reference: PubChem BioAssay AID2305 (GlaxoSmithKline (GSK), 2010)
